Measured values: US7291600B2, “Non-T cell binding peptides and their uses” (priority 2002, dated 2007)
“And” between values parts separate entries of the source, which are not always exact repeats. Equal values may be shown once. “Also recorded” adds a separate entry of the source. No end group written: not given here. *: point of attachment. Myristoyl = CCCCCCCCCCCCCC(=O)*

Experiments:
[1] = system: T cell activation (L57.23 cell with 3.19 cell; Priess cell with 3838 cell); assay: T cell activation assay: antigen presenting cells, peptide and T cell clones co-incubated; IL-2 in supernatant read by CTLL proliferation (MTT); format: cell-based; conditions: FIG. 3; for effect (stimulation) on T cell activation compared with wild type CII peptide: peptide alone with antigen presenting cells and T cells, 48 hours
From the text: Antigen polypeptides are expressed through antigen presenting cells and activate T cells, resulting in the production of inflammation factors in vivo, and further resulting in the typical pathologic changes of rheumatoid arthritis. In the experiment, the inhibition effects of non-T cell binding peptides on T cell activation were detected by measuring T cell proliferation and Interleukin (IL)-2 level. Two sets of systems of antigen presenting and T cell activation, which are recognized internationally, are used in the research.
Wherein one set of antigen presenting and T cell activation system is composed of L57.23 cell and 3.19 cell, and the other set of system is composed of Priess cell and 3838 cell. By comparing the difference in the effects of said seven non-T cell binding peptides on antigen presenting and T cell activation, non-T cell binding peptides which have significant inhibition effect(s) on T cell activation were screened.
Firstly, the antigen presenting cells, different non-T cell binding peptides (10 μg/ml) and corresponding T cells were added into the reaction system and co-incubated at 37° C. for 48 hours. The supernatant was obtained and added into well-grown IL-2 dependent cells (CTLL). The CTLL cell proliferation was detected by using titrazolium salt method (MTT). Thus the inhibition effects of non-T cell binding peptides on T cell activation were determined.

[2] = system: T cell activation (L57.23 cell with 3.19 cell; Priess cell with 3838 cell); assay: as above; format: cell-based; conditions: for inhibition of the T cell activation effects of wild type DRβ1 binding peptide: co-incubated with wild type peptide and T cell activation system, concentration dependent, FIG. 4
[3] = system: collagen-induced arthritis (CIA) in Wistar rats; assay: Collagen-induced arthritis (CIA) induced by bovine CII, treated by subcutaneous peptide injection; format: in vivo; conditions: for suppression / alleviation of arthritis in rats: CIA rats, result in words
Protocol: In the animal experiment protocol of the present invention, collagen-induced arthritis (CIA) in Wistar rats was induced by bovine CII. The non-T cell binding peptides of the present invention were used to treat the arthritis rats.
The experimental arthritis model used in the present invention is collagen-induced arthritis (CIA) which is recognized internationally. The experimental animals used were American Wistar rats, which belong to a blocking colony. They were cultured successfully by Wistar Institute of USA in 1907. They are among the species that were introduced into our country earliest and were used most widely. The rats used in this experiment were all cultured in the animal center of People's Hospital, Peking University (SPF degree II). The rats were cultured in the polyacylene cages cushioned by serrago. The lightness/darkness cycle was maintained as 12 h/12 h. The water and food were freely available to the rats. All the rats used in the experiment were male, 8-10 weeks of age, body weight 180±10 g. All the protocols related to animals in the experiment were in accordance with Chinese Experimental Animal Regulations.
The bovine type II collagen (catalogue number: C11188) was bought from Sigma Co. Ltd. It was dissolved in acetic acid to make a solution with the final concentration of 8 mg/ml. Then the solution was emulsified with complete Freund's adjuvant (Detroit, USA) of the equal volume. 100 μl of the emulsified solution was injected into the footpad of the right limb of each Wistar rat. The injection dose was […]. Thus the arthritis model of Wistar rats was successfully established.
The swelling of metatarsophalangeal joints and interphalangeal joints was found on all the rats about 15 days after the induction of arthritis in Wistar rats with CII. A 0-16 scale was used to evaluate the extent of arthritis. Each of the 4 paws was assigned a score using a 0-4 scale, wherein zero=no joint swelling, 1=swelling of one joint, 2=swelling of 2 joints, 3=swelling of 3 joints, and 4=swelling of 4 joints, which is the swelling of the whole paw. Four paws were scored respectively, and these scores were summed up to give a total score. Beginning 2 days after the immunization, the rats were subjected to an inspection every day until the experiment had been finished.
(§1) The arthritis rats were randomly divided into 4 groups from Day 4 to Day 7 after arthritis induced therein. There were 3 treatment groups and one control group. Each group consisted of 10 rats. Non-T cell binding peptide 267A was subcutaneously injected into the base of tail of each rat every 3 days. The peptides were dissolved in sterile distilled water before injection. The concentrations used in the 3 treatment groups were 100 μg/ml, 500 μg/ml and 1000 μg/ml respectively, 100 μl for each rat, and the control group received sterile distilled water only. The volume change of right feet was measured by water-expelling method every day. Using the aforementioned method of arthritis evaluation, the arthritis scores were given every day based on the number of joints with arthritis. The rats were killed 18 days after treatment. The peripheral blood was collected. The serum concentrations of the respective cytokines were detected using ELISA kits of TNFα and IL-2 (JingMei Biotech Co. Ltd, ShenZhen, P.R.C). In the meanwhile, the joints of the right limb were detached, fixed, decalcified, sectioned and subjected to HE staining.

TNFα = TNFα concentration in peripheral blood of CIA rats (ELISA); format: in vivo, Wistar rats
Protocol: as §1

[4] = system: collagen-induced arthritis (CIA) in Wistar rats; assay: Collagen-induced arthritis (CIA) induced by bovine CII, treated by subcutaneous peptide injection; format: in vivo; conditions: for number of swollen joints, Average: * significantly reduced compared with the control group (p < 0.01), control 6.2
[5] = 10 mg group, right hind foot, individual rats
[6] = 50 mg group, right hind foot, individual rats
[7] = Day 8, 10, 12 and 14, three treatment groups 100, 500, 1000 μg/ml, 100 μl s.c. every 3 days

Question: For “FKGEQGAAGE (Myristoyl-FKGEQGAAGE) [Mut 269-270, amino-terminal linked to myristic acid]”, which “effect (stimulation) on T cell activation compared with wild type CII peptide” value (shortened to “effect … compared with wild type CII peptide”) [1] is on record?
Answer: The value was “none of polypeptides Mut 267-270, Mut 268-270, Mut 269-270, 269A and 270A has significant effect on T cell activation”.

Question: Which results are given for “wild type DRβ1 binding peptide: wild type CII263-272 polypeptide (F K G E Q G P K G E), contains the antigen epitope of Collagen type II (FKGEQGPKGE) [reference compound]”?
Answer: stimulation of T cell proliferation ([2]; at 400, 200, 80, 40 and 20 μg/ml): able to stimulate T cell proliferation; concentration of IL-2 in the supernatant ([1]; non-T cell binding peptides compared with wild type peptide, p<0.01): high concentration of IL-2

Question: For “FKGEGAGAGE (Myristoyl-FKGEGAGAGE) [Mut 267-270, amino-terminal linked to myristic acid]”, which “inhibition of the T cell activation effects of wild type DRβ1 binding peptide” value [2] is on record?
Answer: The value was “significant effects”.

Question: What about the “suppression / alleviation of arthritis in rats” value [3] of the same substance?
Answer: Its value is “significant effects”.

Question: And the “effect … compared with wild type CII peptide” value [1]?
Answer: Its value is “none of polypeptides Mut 267-270, Mut 268-270, Mut 269-270, 269A and 270A has significant effect on T cell activation”.

Question: Which “concentration of TNFα in peripheral blood vs control group” value (TNFα; 100 μg/ml treated group, p<0.05, FIG. 7) does the source give for “FKGEAGPKGE (Myristoyl-FKGEAGPKGE) [267A, amino-terminal linked to myristic acid]” here?
Answer: The value was “significantly lower”.

Question: And the “concentration of TNFα in peripheral blood vs control group” value (TNFα; the other two treatment groups (500 and 1000 μg/ml))?
Answer: The value was “No significant variety”.

Question: And the “number of swollen joints, Average” value ([4]; 10 mg group average)?
Answer: The value was 3.15*.

Question: And the Hind foot volume [4, 5]?
Answer: The Hind foot volume was 1.2 ml (2×) and 1.5 ml and 1.4 ml and 1.3 ml (5×) and 1.1 ml.

Question: What about the “number of swollen joints” value [4, 5] of the same substance?
Answer: The value was 2 (2×) and 4 (3×) and 3 (2×) and 1 (2×) and 6.

Question: And the “number of swollen joints, Average” value ([4]; 50 mg group average)?
Answer: The value was 3.25*.

Question: What about the Hind foot volume [4, 6] of the same substance?
Answer: Its Hind foot volume is 1.4 ml (5×) and 1.7 ml and 1.3 ml and 1.1 ml and 1.6 ml (2×).

Question: What about the “inhibition of the T cell activation effects of wild type DRβ1 binding peptide” value [2] of the same substance?
Answer: Its value is “significant effects”.

Question: What about the “number of swollen joints” value [3, 6] of the same substance?
Answer: The value was 4 (2×) and 6 (2×) and 2 and 1 (3×) and 3 (2×).

Question: What about the “swelling of the right feet” value ([3]; 3 treatment groups, within the first 2 weeks after treatment) of the same substance?
Answer: Its value is “alleviated”.

Question: What about the “difference among the 3 treatment groups in right foot swelling ratios and arthritis scores” value ([3]; 100, 500 and 1000 μg/ml groups, Day 8, 10, 12 and 14) of the same substance?
Answer: Its value is “no significant difference”.

Question: And the “suppression / alleviation of arthritis in rats” value [3]?
Answer: The value was “significant effects; also recorded: significantly suppress arthritis in rats and alleviate the swelling of joints, and shorten the disease course; also recorded: significantly alleviated”.

Question: And the “arthritis score vs control group” value [3, 7]?
Answer: The value was “significantly lower”.

Question: And the “swelling ratio of right feet vs control group” value [3, 7]?
Answer: The value was “significantly lower”.

Question: What about the “remission ratio of CIA vs control group” value ([3]; three treatment groups, Day 8 and Day 16 after treatment, p<0.05) of the same substance?
Answer: Its value is “remission ratio(s) of CIA in the control group are significantly lower than that in the three treatment groups; also recorded: significantly higher”.

Question: With “FKGEQAGAGE (Myristoyl-FKGEQAGAGE) [Mut 268-270, amino-terminal linked to myristic acid]” as the substance, how does the “effect … compared with wild type CII peptide” value [1] read?
Answer: Its value is “none of polypeptides Mut 267-270, Mut 268-270, Mut 269-270, 269A and 270A has significant effect on T cell activation”.

Question: For “FKGEQGPAGE (Myristoyl-FKGEQGPAGE) [270A, amino-terminal linked to myristic acid]”, which “effect … compared with wild type CII peptide” value [1] is on record?
Answer: Its value is “none of polypeptides Mut 267-270, Mut 268-270, Mut 269-270, 269A and 270A has significant effect on T cell activation”.

Question: With “FKGEQGAKGE (Myristoyl-FKGEQGAKGE) [269A, amino-terminal linked to myristic acid]” as the substance, how does the “effect … compared with wild type CII peptide” value [1] read?
Answer: The value was “none of polypeptides Mut 267-270, Mut 268-270, Mut 269-270, 269A and 270A has significant effect on T cell activation”.
